Laboratory results as given in ChEMBL document CHEMBL4507262, “Data for DCP probe A-1596586” (2021).

Columns and labels:
[1] = biological target: cGMP-inhibited 3',5'-cyclic phosphodiesterase 3A (Homo sapiens) (UniProt Q14432); experiment: PDE3A (h) Eurofins-Cerep enzyme and uptake assay; settings: Compound concentration 10.0 uM
[2] = biological target: Beta-2 adrenergic receptor (Homo sapiens) (UniProt P07550); experiment: Beta2 (h) Eurofins-Cerep binding assay; parameters: ligand concentration 0.3 nM; settings: filed as antagonist, Compound concentration 10.0 uM
[3] = biological target: T1, Muscarinic acetylcholine receptor M4 (Homo sapiens) (UniProt P08173); experiment: M4 (h) Eurofins-Cerep binding assay; parameters: ligand concentration 0.2 nM; settings: filed as antagonist, Compound concentration 10.0 uM
T1 sequence (whole entry): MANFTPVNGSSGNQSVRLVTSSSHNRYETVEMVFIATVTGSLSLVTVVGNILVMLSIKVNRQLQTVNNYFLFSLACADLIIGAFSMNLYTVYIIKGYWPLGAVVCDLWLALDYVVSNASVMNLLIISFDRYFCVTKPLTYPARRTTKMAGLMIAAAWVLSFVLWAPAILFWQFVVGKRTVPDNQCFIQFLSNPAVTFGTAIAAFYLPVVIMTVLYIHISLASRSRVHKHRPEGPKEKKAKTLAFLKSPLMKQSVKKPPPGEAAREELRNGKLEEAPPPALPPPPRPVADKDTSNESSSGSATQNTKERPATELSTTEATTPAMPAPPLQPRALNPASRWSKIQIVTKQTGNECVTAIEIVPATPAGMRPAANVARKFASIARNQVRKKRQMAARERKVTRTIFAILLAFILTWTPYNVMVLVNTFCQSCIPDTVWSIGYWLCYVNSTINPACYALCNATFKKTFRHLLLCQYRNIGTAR

[4] = biological target: T2, Muscarinic acetylcholine receptor M5 (Homo sapiens) (UniProt P08912); experiment: M5 (h) Eurofins-Cerep binding assay; parameters: ligand concentration 0.3 nM; settings: filed as antagonist, Compound concentration 10.0 uM
T2 sequence (whole entry): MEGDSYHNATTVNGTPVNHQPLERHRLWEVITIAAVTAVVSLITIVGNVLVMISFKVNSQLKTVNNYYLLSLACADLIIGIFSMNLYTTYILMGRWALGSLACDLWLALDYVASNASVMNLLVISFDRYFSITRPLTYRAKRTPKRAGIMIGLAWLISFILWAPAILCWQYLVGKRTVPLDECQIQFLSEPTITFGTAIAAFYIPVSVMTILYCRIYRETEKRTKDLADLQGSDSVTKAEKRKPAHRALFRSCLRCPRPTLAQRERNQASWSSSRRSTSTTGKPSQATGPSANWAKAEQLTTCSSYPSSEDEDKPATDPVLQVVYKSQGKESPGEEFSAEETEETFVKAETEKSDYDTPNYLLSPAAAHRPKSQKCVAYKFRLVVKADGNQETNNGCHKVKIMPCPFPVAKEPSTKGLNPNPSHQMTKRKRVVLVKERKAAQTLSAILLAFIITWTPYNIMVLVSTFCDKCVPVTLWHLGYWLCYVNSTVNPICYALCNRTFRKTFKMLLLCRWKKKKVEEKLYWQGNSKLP

[5] = tested on: Tyrosine-protein kinase ABL1 (Homo sapiens), P00519 [Y253F]; settings: Compound concentration 1000.0 nM
[6] = biological target: Tyrosine-protein kinase ABL1 (Homo sapiens) (UniProt P00519); settings: Compound concentration 1000.0 nM
[7] = biological target: Atypical kinase COQ8A, mitochondrial (Homo sapiens) (UniProt Q8NI60); settings: Compound concentration 1000.0 nM
[8] = biological target: Calcium/calmodulin-dependent protein kinase type II subunit gamma (Homo sapiens) (UniProt Q13555); settings: Compound concentration 1000.0 nM
[9] = biological target: Cyclin-dependent kinase 11B (Homo sapiens) (UniProt P21127); settings: Compound concentration 1000.0 nM
[10] = biological target: Citron Rho-interacting kinase (Homo sapiens) (UniProt O14578); settings: Compound concentration 1000.0 nM
[11] = biological target: Tyrosine-protein kinase CSK (Homo sapiens) (UniProt P41240); settings: Compound concentration 1000.0 nM
[12] = tested on: Epidermal growth factor receptor (Homo sapiens), P00533 [UNDEFINED MUTATION]; settings: Compound concentration 1000.0 nM
[13] = biological target: Vascular endothelial growth factor receptor 3 (Homo sapiens) (UniProt P35916); settings: Compound concentration 1000.0 nM
[14] = biological target: G protein-coupled receptor kinase 3 (Homo sapiens) (UniProt P35626); settings: Compound concentration 1000.0 nM
[15] = biological target: Serine/threonine-protein kinase 10 (Homo sapiens) (UniProt O94804); settings: Compound concentration 1000.0 nM
[16] = biological target: Mitogen-activated protein kinase kinase kinase 4 (Homo sapiens) (UniProt Q9Y6R4); settings: Compound concentration 1000.0 nM
[17] = biological target: Myosin light chain kinase 2, skeletal/cardiac muscle (Homo sapiens) (UniProt Q9H1R3); settings: Compound concentration 1000.0 nM
[18] = biological target: Mitogen-activated protein kinase 13 (Homo sapiens) (UniProt O15264); settings: Compound concentration 1000.0 nM
[19] = biological target: Serine/threonine-protein kinase PAK 3 (Homo sapiens) (UniProt O75914); settings: Compound concentration 1000.0 nM
[20] = biological target: Serine/threonine-protein kinase PAK 6 (Homo sapiens) (UniProt Q9NQU5); settings: Compound concentration 1000.0 nM
[21] = tested on: Phosphatidylinositol 4,5-bisphosphate 3-kinase catalytic subunit alpha isoform (Homo sapiens), P42336 [I800L]; settings: Compound concentration 1000.0 nM
[22] = biological target: 1-phosphatidylinositol 3-phosphate 5-kinase (Homo sapiens) (UniProt Q9Y2I7); settings: Compound concentration 1000.0 nM
[23] = biological target: Serine/threonine-protein kinase pim-3 (Homo sapiens) (UniProt Q86V86); settings: Compound concentration 1000.0 nM
[24] = biological target: Serine/threonine-protein kinase 33 (Homo sapiens) (UniProt Q9BYT3); settings: Compound concentration 1000.0 nM
[25] = biological target: Serine/threonine-protein kinase 36 (Homo sapiens) (UniProt Q9NRP7); settings: Compound concentration 1000.0 nM
[26] = biological target: Tyrosine-protein kinase SYK (Homo sapiens) (UniProt P43405); settings: Compound concentration 1000.0 nM
[27] = biological target: Serine/threonine-protein kinase TBK1 (Homo sapiens) (UniProt Q9UHD2); settings: Compound concentration 1000.0 nM
[28] = biological target: Serine/threonine-protein kinase TNNI3K (Homo sapiens) (UniProt Q59H18); settings: Compound concentration 1000.0 nM
[29] = biological target: Non-receptor tyrosine-protein kinase TYK2 (Homo sapiens) (UniProt P29597); settings: Compound concentration 1000.0 nM
[30] = biological target: Serine/threonine-protein kinase WNK4 (Homo sapiens) (UniProt Q96J92); settings: Compound concentration 1000.0 nM
[31] = biological target: Serine/threonine-protein kinase 32B (Homo sapiens) (UniProt Q9NY57); settings: Compound concentration 1000.0 nM

Sequence of Vascular endothelial growth factor receptor 3 (Homo sapiens) (P35916 whole entry): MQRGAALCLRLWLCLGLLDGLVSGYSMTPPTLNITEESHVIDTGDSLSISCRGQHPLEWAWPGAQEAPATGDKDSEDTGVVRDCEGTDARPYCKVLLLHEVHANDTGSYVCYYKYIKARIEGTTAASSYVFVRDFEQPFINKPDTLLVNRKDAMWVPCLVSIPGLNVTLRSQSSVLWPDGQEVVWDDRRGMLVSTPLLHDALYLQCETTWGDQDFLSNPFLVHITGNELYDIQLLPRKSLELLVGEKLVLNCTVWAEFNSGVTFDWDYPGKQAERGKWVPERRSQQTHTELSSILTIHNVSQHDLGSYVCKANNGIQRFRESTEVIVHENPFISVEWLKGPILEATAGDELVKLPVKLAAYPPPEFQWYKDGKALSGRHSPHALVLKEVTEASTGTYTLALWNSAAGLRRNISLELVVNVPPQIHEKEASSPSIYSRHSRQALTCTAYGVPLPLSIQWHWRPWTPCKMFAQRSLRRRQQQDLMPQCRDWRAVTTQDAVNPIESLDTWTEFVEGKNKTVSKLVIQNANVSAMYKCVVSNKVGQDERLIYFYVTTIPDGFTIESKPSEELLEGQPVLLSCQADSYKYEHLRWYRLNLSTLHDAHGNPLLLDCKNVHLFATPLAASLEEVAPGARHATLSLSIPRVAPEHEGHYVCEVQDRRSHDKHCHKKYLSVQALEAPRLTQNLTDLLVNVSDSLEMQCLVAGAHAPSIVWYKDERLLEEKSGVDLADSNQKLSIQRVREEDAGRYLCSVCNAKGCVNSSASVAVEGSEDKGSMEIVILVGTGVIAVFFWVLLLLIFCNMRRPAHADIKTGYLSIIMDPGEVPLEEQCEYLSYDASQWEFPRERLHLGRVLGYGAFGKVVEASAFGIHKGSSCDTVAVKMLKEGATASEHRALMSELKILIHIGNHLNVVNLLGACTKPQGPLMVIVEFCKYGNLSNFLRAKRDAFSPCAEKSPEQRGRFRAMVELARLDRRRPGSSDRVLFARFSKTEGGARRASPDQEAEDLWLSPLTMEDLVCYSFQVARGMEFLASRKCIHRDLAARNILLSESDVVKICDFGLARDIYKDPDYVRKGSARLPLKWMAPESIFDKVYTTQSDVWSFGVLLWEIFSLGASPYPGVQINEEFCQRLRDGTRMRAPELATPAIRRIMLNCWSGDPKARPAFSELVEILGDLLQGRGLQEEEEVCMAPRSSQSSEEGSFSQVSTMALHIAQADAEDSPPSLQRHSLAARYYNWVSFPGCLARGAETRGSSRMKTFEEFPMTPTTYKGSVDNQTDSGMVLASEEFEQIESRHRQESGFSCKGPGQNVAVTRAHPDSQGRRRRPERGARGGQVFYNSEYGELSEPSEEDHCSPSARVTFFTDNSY
Sequence of Serine/threonine-protein kinase TBK1 (Homo sapiens) (Q9UHD2 whole entry): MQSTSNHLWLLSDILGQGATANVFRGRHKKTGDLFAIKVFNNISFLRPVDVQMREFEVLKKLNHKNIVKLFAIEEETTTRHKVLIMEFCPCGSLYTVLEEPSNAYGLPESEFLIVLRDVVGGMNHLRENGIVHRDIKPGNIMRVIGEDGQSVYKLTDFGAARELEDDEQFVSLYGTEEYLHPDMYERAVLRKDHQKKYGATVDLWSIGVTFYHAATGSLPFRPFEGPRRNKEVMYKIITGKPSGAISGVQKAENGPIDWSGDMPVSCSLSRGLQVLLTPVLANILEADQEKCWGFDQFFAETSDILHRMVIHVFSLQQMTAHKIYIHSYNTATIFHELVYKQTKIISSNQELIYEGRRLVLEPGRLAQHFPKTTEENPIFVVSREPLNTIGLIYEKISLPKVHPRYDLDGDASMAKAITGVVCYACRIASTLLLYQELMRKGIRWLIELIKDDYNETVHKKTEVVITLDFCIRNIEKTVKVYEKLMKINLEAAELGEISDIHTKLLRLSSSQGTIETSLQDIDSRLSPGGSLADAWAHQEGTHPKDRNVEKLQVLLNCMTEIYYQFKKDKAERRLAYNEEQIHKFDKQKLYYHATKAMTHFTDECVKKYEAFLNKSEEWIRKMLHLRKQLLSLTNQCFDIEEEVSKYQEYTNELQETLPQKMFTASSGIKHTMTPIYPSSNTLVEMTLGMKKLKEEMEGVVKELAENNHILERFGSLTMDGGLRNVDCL
Sequence of Serine/threonine-protein kinase WNK4 (Homo sapiens) (Q96J92 whole entry): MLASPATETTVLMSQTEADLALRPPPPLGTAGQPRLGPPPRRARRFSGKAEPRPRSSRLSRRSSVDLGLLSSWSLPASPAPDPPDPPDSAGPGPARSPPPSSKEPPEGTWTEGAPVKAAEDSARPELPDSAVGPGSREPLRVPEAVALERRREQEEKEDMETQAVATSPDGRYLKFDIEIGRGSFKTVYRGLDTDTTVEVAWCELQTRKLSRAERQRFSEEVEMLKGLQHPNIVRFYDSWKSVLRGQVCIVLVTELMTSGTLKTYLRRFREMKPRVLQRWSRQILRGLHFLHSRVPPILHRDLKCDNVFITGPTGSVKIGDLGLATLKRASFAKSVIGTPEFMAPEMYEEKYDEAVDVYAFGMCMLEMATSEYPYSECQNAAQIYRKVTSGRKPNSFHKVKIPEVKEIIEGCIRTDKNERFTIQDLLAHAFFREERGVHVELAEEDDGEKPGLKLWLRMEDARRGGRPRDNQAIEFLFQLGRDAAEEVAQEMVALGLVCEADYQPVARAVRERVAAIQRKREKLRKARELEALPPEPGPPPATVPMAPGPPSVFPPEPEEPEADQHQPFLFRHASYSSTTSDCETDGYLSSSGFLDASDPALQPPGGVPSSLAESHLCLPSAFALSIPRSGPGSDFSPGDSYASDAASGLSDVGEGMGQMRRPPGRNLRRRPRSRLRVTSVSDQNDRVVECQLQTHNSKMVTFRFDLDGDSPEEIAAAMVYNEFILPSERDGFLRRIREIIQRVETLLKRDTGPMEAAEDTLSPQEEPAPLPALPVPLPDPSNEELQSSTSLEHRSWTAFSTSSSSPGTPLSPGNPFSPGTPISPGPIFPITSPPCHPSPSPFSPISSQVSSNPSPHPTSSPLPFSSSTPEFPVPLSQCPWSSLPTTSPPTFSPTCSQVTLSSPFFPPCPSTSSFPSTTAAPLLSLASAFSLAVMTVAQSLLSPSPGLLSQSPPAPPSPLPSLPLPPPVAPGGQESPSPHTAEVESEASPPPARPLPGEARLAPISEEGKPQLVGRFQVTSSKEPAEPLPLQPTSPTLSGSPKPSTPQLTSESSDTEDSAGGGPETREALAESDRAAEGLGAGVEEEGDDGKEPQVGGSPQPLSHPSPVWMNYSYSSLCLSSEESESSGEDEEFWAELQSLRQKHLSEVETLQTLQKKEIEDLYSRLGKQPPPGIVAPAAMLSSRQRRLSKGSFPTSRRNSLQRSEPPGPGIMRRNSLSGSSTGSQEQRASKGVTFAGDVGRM
Sequence of Serine/threonine-protein kinase PAK 3 (Homo sapiens) (O75914 whole entry, looked up): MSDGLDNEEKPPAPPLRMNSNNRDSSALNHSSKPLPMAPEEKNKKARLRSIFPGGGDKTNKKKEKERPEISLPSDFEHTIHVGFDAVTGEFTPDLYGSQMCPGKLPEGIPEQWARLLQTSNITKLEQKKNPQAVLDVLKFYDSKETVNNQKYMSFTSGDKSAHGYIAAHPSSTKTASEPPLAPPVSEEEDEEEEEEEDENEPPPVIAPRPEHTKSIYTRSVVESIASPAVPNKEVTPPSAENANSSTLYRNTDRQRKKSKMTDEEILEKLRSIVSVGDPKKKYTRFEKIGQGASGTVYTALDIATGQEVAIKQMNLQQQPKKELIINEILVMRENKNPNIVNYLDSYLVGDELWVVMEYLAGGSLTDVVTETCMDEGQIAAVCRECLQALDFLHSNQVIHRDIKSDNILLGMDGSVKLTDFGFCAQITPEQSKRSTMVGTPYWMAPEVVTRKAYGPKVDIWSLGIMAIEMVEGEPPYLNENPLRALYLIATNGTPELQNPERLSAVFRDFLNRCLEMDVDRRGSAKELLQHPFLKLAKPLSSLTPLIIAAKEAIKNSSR
Sequence of Serine/threonine-protein kinase PAK 6 (Homo sapiens) (Q9NQU5 whole entry, looked up, canonical isoform): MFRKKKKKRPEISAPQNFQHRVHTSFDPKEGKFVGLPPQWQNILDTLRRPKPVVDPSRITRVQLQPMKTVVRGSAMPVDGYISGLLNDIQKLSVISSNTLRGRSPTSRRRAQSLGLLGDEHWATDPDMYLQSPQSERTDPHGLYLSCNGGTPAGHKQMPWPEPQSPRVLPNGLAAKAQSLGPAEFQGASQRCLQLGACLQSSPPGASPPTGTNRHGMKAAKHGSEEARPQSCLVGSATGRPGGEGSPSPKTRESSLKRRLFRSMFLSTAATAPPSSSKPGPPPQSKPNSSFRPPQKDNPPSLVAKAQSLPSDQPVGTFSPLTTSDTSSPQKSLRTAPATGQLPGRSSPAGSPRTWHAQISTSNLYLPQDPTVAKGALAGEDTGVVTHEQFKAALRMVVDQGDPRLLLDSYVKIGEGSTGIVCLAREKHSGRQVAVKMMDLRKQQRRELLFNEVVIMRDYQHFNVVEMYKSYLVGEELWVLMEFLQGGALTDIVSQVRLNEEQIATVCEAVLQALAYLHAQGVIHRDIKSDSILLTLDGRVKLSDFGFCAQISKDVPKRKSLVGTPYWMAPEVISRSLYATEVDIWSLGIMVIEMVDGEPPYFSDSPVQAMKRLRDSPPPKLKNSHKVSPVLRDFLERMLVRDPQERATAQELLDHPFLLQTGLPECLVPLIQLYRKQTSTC
Sequence of Mitogen-activated protein kinase 13 (Homo sapiens) (O15264 whole entry): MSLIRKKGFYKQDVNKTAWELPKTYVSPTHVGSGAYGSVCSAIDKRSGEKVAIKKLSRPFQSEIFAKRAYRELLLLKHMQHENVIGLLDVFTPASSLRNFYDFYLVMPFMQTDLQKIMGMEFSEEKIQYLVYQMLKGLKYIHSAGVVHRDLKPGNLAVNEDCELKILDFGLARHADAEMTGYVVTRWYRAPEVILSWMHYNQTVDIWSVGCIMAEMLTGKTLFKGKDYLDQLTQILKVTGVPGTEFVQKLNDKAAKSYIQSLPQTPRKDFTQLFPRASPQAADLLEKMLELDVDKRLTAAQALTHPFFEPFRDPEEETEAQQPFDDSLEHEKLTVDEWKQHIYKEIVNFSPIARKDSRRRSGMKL

Structure (SMILES)	% Inhibition of Control Values (Mean n=2) [1]	% Inhibition of Control Specific Binding (Mean n=2) [2]	% Inhibition of Control Specific Binding (Mean n=2) [3]	% Inhibition of Control Specific Binding (Mean n=2) [4]	residual activity [5]	residual activity [6]	residual activity [7]	residual activity [8]	residual activity [9]	residual activity [10]	residual activity [11]	residual activity [12]	residual activity [13]	residual activity [14]	residual activity [15]	residual activity [16]	residual activity [17]	residual activity [18]	residual activity [19]	residual activity [20]	other results
COc1ccc2c(c1)O[C@@H](c1ccc(OC)c(OC)c1)C[C@H]2NC(=O)C1(c2ccc3c(c2)OC(F)(F)O3)CC1 [A-1596586]	1.2%	7%	6.1%	35.7%	78%	86%	87%	96%	100%	90%	87%	100%	91%	75%	88%	95%	90%	97%	87%	79%	residual activity [21]: 79%; residual activity [22]: 100%; residual activity [23]: 91%; residual activity [24]: 68%; residual activity [25]: 100%; residual activity [26]: 100%; residual activity [27]: 86%; residual activity [28]: 100%; residual activity [29]: 91%; residual activity [30]: 85%; residual activity [31]: 100%
COc1ccc2c(c1)O[C@H](c1ccc(OC)c(OC)c1)C[C@@H]2NC(=O)C1(c2ccc3c(c2)OC(F)(F)O3)CC1 [A-1596584]	-2.1%	11.6%	-3.9%	-0.7%	93%	100%	100%	100%	100%	92%	100%	100%	97%	100%	100%	98%	95%	100%	100%	100%	residual activity [21]: 97%; residual activity [22]: 89%; residual activity [23]: 100%; residual activity [24]: 61%; residual activity [25]: 94%; residual activity [26]: 100%; residual activity [27]: 99%; residual activity [28]: 100%; residual activity [29]: 100%; residual activity [30]: 83%; residual activity [31]: 100%
